Key:
[1] = system: c-Myc and PUMA; assay: Western blot of c-Myc, PUMA and p53 target genes; assay type: cell-based, human; conditions: colorectal cancer cell lines and Jurkat cells
Procedure: After treatment, protein lysates were collected for Western blot analysis. A total of […] of protein was used for SDS-PAGE. After primary and secondary antibody incubations, the signal was detected by a chemiluminescence detection kit, imaged by Syngene (Imgen Technologies). Antibodies for PUMA (for IHC), p53 (Santa Cruz Biotechnology), caspase 8, cleaved caspase 8, caspase 9, caspase 3, cleavage PARP, eIF2α, p-eIF2α (Ser51), CHOP, ATF4, DR5, FOXO3a, p-FOXO3a (Ser253), NF-κB p65, p-NF-κB p65 (Ser536), c-Jun, p-c-Jun (Ser63), JNK, p-JNK (Thr183/Tyr185), PUMA (for WB), c-Myc, phosphor-S62-cMyc (Cell Signaling Technology), Noxa, p21 (Calbiochem), p73 (Bethyl laboratories Inc), Ran (BD Biosciences), […] (Sigma).
To test this hypothesis, two ERK1/2 inhibitors that act by different mechanisms were used. U0126 is an indirect ERK1/2 inhibitor. It inhibits MEK1 kinase and blocks the phosphorylation of ERK1/2. […] Consistent with a previous publication (Choi et al., Genes Dev, 2010, 24, 1236-1241), SCH772984 can inhibit ERK1/2 function after ERK1/2 is phosphorylated (FIG. 73), and the same is observed for PG3-Oc (FIG. 73).

[2] = system: DLD1; assay: CellTiterGlo cell viability assay, DLD1; assay type: cell-based; conditions: Homo sapiens, DLD-1; DLD1, colorectal cancer, p53 S241F, 72 hours
Procedure: (§1) • 1) Cell lines: HT29, SW480, DLD-1, HCT116, and p53-null HCT116 cells, H1975, MDA-MD-231, U251, FaDu, CAL-27, PANC-1, Aspc-1, and MRC5 were obtained from the ATCC and cultured as recommended. Cells were regularly authenticated by bioluminescence, growth, and morphologic observation. The cells were routinely examined for Mycoplasma and all cell lines underwent STR authentication. • 2) Western blotting: After treatment, protein lysates were collected for Western blot analysis. 15 μg of protein was used for SDS-PAGE. After primary and secondary antibody incubations, the signal was detected by chemiluminescent detection kit, imaged by Syngene (Imgen Technologies). […] The cell viability was assessed by CellTiterGlo bioluminescent cell proliferation assay (Promega), following the manufacturer's protocol. Bioluminescence imaging was measured using the IVIS imager. Percentage of cell viability (mean±SEM) at each dose was calculated against the respective DMSO control. The IC50 values were determined from the sigmoidal dose-response curves using GraphPad Prims4. • 4) Caspase activity assay: Cells were seeded in 96-well plate (1×10^4 cells/well). […] The caspase 3/7 activity was assessed by Caspase-Glo® 3/7 Assay kit (Promega), following the manufacturer's protocol. Bioluminescence imaging was measured using the IVIS imager. […]

[3] = system: panel of CRC cell lines; assay: Colony formation assay (long-term cell proliferation); assay type: cell-based, human; conditions: low dose
Procedure: Five hundred cells were seeded per well in 6-well plates and treated with different concentrations of compounds for 24 hours, then, cells were cultured with drug-free complete medium for 2 weeks with fresh medium changed every 7 days. Cells were fixed with 10% formalin and stained with 0.05% crystal violet at the end of 2 weeks period of cell culture (Franken et al., Nat. Protoc., 2006, 1, 2315-9).

[4] = system: HCT116 p53−/−; assay: CellTiterGlo cell viability assay, HCT116 p53−/−; assay type: cell-based; conditions: Homo sapiens, HCT-116, colorectal cancer, p53 null, 72 hours
Procedure: as §1

[5] = system: ATF4 and CHOP in DLD1 cells; assay: Western blot of ATF4 and CHOP, DLD1; assay type: cell-based, human
Procedure: as §1

[6] = system: HT29 cells; assay: qRT-PCR of p53 target gene mRNA, HT29; assay type: cell-based, human; conditions: HT29, 1 μM, 8 and 19 hours post-treatment
Procedure: as §1

[7] = system: ASPC-1; assay: CellTiterGlo cell viability assay, ASPC-1; assay type: cell-based; conditions: Homo sapiens, ASPC1; ASPC-1, pancreatic cancer, p53 frameshift, 72 hours
Procedure: as §1

[8] = system: caspase 3/7; assay: Caspase-Glo 3/7 caspase activity assay; assay type: cell-based, human; conditions: mutant p53 and p53-null cancer cells, 24 hours
Procedure: as §1

## CCCCCCCCOC(=O)CCc1c(C)[nH]c(/C=C2\N=C(c3ccc[nH]3)C=C2OC)c1C [PG3-Oc, Octyl (Z)-3-(5-((4′-methoxy-1H,5′H-[2,2′-bipyrrol]-5′-ylidene)methyl)-2,4-dimethyl-1H-pyrrol-3-yl)propanoate]
[1]
  effect on c-Myc: potently downregulated c-Myc
[2]
  IC50: 54 nM
[3]
  inhibition in long-term cell proliferation: Over 90%
[4]
  IC50: 41.1 nM
[5]
  concentration at which induction of ATF4 and CHOP occurred: 5 µM
[6]
  induction of p21 mRNA: Over 3 fold
[7]
  IC50: 39.2 nM
[8]
  increase in caspase 3/7 activity as compared to untreated cells: 2 fold
